Laboratory results: patent US4735792A, “Radioiodinated maleimides and use as agents for radiolabeling antibodies” (The United States of America as represented by the United …, priority 1987, dated 1988)
Like-named read-outs stand apart in the source and are kept apart here.

How the values were obtained:
[1] = Tissue distribution of radioactivity after intravenous administration in rats; format: in vivo, female Fischer 344 rats (printed "femal Fischer 344 rats"); conditions: for tissue uptake at 5 min / tissue uptake at 0.5 h / tissue uptake at 1 h: rat, iv; for tissue uptake at 5 min: 5 min after i.v. injection; for tissue uptake at 0.5 h: 30 min after i.v. injection; for tissue uptake at 1 h: 60 min after i.v. injection; for binding with the blood, tissue distribution (in words) / thyroid uptake / thyroid levels of radioactivity (in words): rats; for thyroid uptake / thyroid levels of radioactivity (in words): indicative of in vivo stability of radiolabel toward deiodination
Method: 4-[^125 I]iodoaniline (7.4 mCi sp. act. 700 mCi/mmol) prepared following structure described in Step 1 of Example 1 was coupled with maleic anhydride (9.5 mg) in glacial acetic acid (0.15 ml) at room temperature. The radioiodinated compound, [^125 I]3 isolated by silica gel column chromatography was refluxed with acetic anhydride
The distribution of radiactivity in tissues of femal Fischer 344 rats
(§1) after intravenous administration of [^125 I]4.^a
^a Animals had body weight range of 121-139 gm. Each animal received
3.7 ^o Ci of [^125 I]4 by tail vein injection.
The distribution of radioactivity in tissues of femal Fischer 344 rats
as §1
(75mg) and anhydrous (fused) sodium acetate (12 mg) in benzene (1.0 ml) for 3 h. The product, [^125 I]4 (3.99 mCi, 56 percent radiochemical yield based on [^125 I]3), was isolated by silica gel column chromatography. The radioactive compound [^125 I]4 was identical with an unlabeled sample of 4.

[2] = tested on: red blood cells; experiment: Blood fractionation (plasma, red and white blood cells) studies; format: in vivo, rat; conditions: rats injected with [^125 I]4
Excerpt: Blood fractionation (plasma, red and white blood cells) studies indicated 88.9% of the blood activity to be associated with red blood cells.

[3] = Binding to bovine albumin (activity remaining in aqueous portion after ether extraction; TLC); conditions: bovine albumin 45 mg/ml in PBS, 30 min at 37° C., after ether extraction; read-out: activity remaining in the aqueous portion (bound with protein), albumin (converted)
Method: (§2) Samples of bovine albumin (45 mg/ml, 10 ml) and human γ-globulin (6.7 mg/ml. 10 ml) were prepared in phosphate buffer and 0.15 NaCl solution (PBS). A 10 ml sample of PBS was used as control. [^125 I]-IPM (10 μCi) in 100 λ DMSO was added to each sample and incubated for 30 min at 37° C. The samples were repeatedly extracted with ethyl ether. The unbound activity as [^125 I]-IPM was extracted with ethyl ether. The activity remaining in the aqueous portion was considered to be bound with the proteins.

[4] = tested on: bovine albumin; experiment: as above; conditions: TLC of aqueous portion, radioactivity with a polar band
Method: as §2

[5] = Binding to human γ-globulin (activity remaining in aqueous portion after ether extraction; TLC); conditions: gamma-globulin in pbs; human γ-globulin 6.7 mg/ml in PBS, 30 min at 37° C., after ether extraction; read-out: activity remaining in the aqueous portion (bound with protein), γ-globulin (converted)
Method: as §2

[6] = tested on: human γ-globulin; experiment: as above; conditions: TLC of aqueous portion, radioactivity with a polar band
Method: as §2

[7] = tested on: IgG; experiment: Preliminary studies of binding with IgG
[8] = tested on: albumin; experiment: Preliminary studies of binding with albumin
[9] = tested on: platelet proteins; experiment: Preliminary studies of binding with platelet proteins
[10] = blood, Table 1, blood, read-out: Mean percent injected dose/gm, Blood
[11] = blood, Table 2, blood, read-out: Mean percent injected dose/gm, Blood
[12] = heart, Table 1, heart, read-out: Mean percent injected dose/gm, Heart
[13] = heart, Table 2, heart, read-out: Mean percent injected dose/gm, Heart
[14] = kidneys, Table 1, kidneys, read-out: Mean percent injected dose/gm, Kidneys
[15] = kidneys, Table 2, kidneys, read-out: Mean percent injected dose/gm, Kidneys
[16] = liver, Table 1, liver, read-out: Mean percent injected dose/gm, Liver
[17] = liver, Table 2, liver, read-out: Mean percent injected dose/gm, Liver
[18] = lungs, Table 1, lungs, read-out: Mean percent injected dose/gm, Lungs
[19] = lungs, Table 2, lungs, read-out: Mean percent injected dose/gm, Lungs
[20] = thyroid, Table 1, thyroid, read-out: Mean percent injected dose/gm, Thyroid
[21] = thyroid, Table 2, thyroid, read-out: Mean percent injected dose/gm, Thyroid

- tissue uptake at 5 min [1, 10]: 8.84 %ID/g
- tissue uptake at 0.5 h [1, 10]: 8.44 %ID/g
- tissue uptake at 1 h [1, 10]: 7.56 %ID/g
- tissue uptake at 5 min [1, 11]: 57.6 %ID/g
- tissue uptake at 0.5 h [1, 11]: 54.1 %ID/g
- tissue uptake at 1 h [1, 11]: 48.6 %ID/g
- tissue uptake at 5 min [1, 12]: 1.45 %ID/g
- tissue uptake at 0.5 h [1, 12]: 1.81 %ID/g
- tissue uptake at 1 h [1, 12]: 1.74 %ID/g
- tissue uptake at 5 min [1, 13]: 0.61 %ID/g
- tissue uptake at 0.5 h [1, 13]: 0.79 %ID/g
- tissue uptake at 1 h [1, 13]: 0.74 %ID/g
- tissue uptake at 5 min [1, 14]: 2.15 %ID/g
- tissue uptake at 0.5 h [1, 14]: 2.12 %ID/g
- tissue uptake at 1 h [1, 14]: 2.07 %ID/g
- tissue uptake at 5 min [1, 15]: 2.17 %ID/g
- tissue uptake at 0.5 h [1, 15]: 2.18 %ID/g
- tissue uptake at 1 h [1, 15]: 2.21 %ID/g
- tissue uptake at 5 min [1, 16]: 1.9 %ID/g
- tissue uptake at 0.5 h [1, 16]: 1.73 %ID/g
- tissue uptake at 1 h [1, 16]: 1.5 %ID/g
- tissue uptake at 5 min [1, 17]: 10.2 %ID/g
- tissue uptake at 0.5 h [1, 17]: 7.85 %ID/g
- tissue uptake at 1 h [1, 17]: 7.05 %ID/g
- tissue uptake at 5 min [1, 18]: 2.04 %ID/g
- tissue uptake at 0.5 h [1, 18]: 2.52 %ID/g
- tissue uptake at 1 h [1, 18]: 2.31 %ID/g
- tissue uptake at 5 min [1, 19]: 1.76 %ID/g
- tissue uptake at 0.5 h [1, 19]: 1.89 %ID/g
- tissue uptake at 1 h [1, 19]: 1.74 %ID/g
- tissue uptake at 5 min [1, 20]: 13.7 %ID/g
- tissue uptake at 0.5 h [1, 20]: 21.7 %ID/g
- tissue uptake at 1 h [1, 20]: 20.5 %ID/g
- tissue uptake at 5 min [1, 21]: 0.13 %ID/g
- tissue uptake at 0.5 h [1, 21]: 0.2 %ID/g
- tissue uptake at 1 h [1, 21]: 0.19 %ID/g
- thyroid uptake / thyroid levels of radioactivity (in words) ([1]; listed as IPM): consistently low
- thyroid uptake / thyroid levels of radioactivity (in words) ([1]; listed as maleimide agent): low
- binding with the blood, tissue distribution (in words) ([1]; listed as IPM): preferential binding
- binding with the blood, tissue distribution (in words) ([1]; listed as maleimide agent): preferential binding with the blood
- blood activity associated with red blood cells [2]: 88.9%
- fraction unbound at 0.5 h [3]: ~0.4
- binding with albumin by TLC (in words) [4]: significant binding
- fraction unbound at 0.5 h [5]: ~0.6
- binding with γ-globulin by TLC (in words) [6]: significant binding
- binding with IgG (in words) [7]: appears to bind
- binding with albumin (in words) [8]: appears to bind
- binding with platelet proteins (in words) [9]: appears to bind
Compound: O=C1C=CC(=O)N1c1ccc([125I])cc1 [[^125 I]4, N-(p-[^125 I]iodophenyl)maleimide]
- binding with the blood, tissue distribution (in words) [1]: high levels of radioactivity were associated with the blood
